Data taken from patent US10702706B2, “Apparatus, system, and method for generating photo-biologic minimum biofilm inhibitory concentration of infrared light” (NOMIR MEDICAL TECHNOLOGIES, INC., priority 2013, dated 2020).
Read-outs that look alike come from different tables or passages of the source.

Key:
[1] = system: MRSA; test: In vitro biofilm formation by biofilm producing MRSA strains challenged with Mupirocin, with or without NIMELS infrared light; type: cell-based, methicillin resistant Staphylococcus aureus
Source text: The applicant tested the effect in vitro against MRSA with the topical drug Mupirocin.
Accordingly, the PMBIC for MRSA challenged with Mupirocin was established using a straightforward testing protocol.

[2] = system: MRSA; conditions: cited from earlier work
[3] = system: MRSA; conditions: of 38 patients, topical mupirocin; cited from earlier work
[4] = system: S. aureus; conditions: cited from earlier work

Structure (SMILES): C/C(=C\C(=O)OCCCCCCCCC(=O)O)C[C@@H]1OC[C@H](C[C@@H]2O[C@H]2[C@@H](C)[C@H](C)O)[C@@H](O)[C@H]1O [Mupirocin]
- prevention of biofilm formation ([1]; drug treatment alone, in vitro, biofilm producing MRSA strain (FIG. 9 left panel)): not effective in preventing biofilm formation
- inhibition of biofilm production ([1]; sub-lethal NIMELS infrared light doses (870/930 nm, Table I) applied prior to drug, two different samples of MRSA (FIG. 9 right panel, FIG. 10)): did in fact inhibit biofilm production
- MIC ([2]; 17 failed samples that were biofilm producing strains): ≤ 2 µg/mL
- MIC ([2]; MRSA samples of the 14 patients with successful eradication): ≤ 1 µg/mL
- patients successfully eradicated of their MRSA [3]: 14
- effect on planktonic bacteria ([4]; applied 15 minutes after inoculation (representing planktonic bacteria)): reduced planktonic bacteria
- effect on biofilm bacteria ([4]; applied 48 hours after inoculation (representing biofilm bacteria)): decreased efficacy on S. aureus biofilms
